Reference: US7662388B2, “Endogenous peptide and active subfragments thereof” (Innoventus Project AB, priority 2003, dated 2010)

Columns and labels:
primary BCE cells [1] = experiment: chemotaxis (migration) assay in modified Boyden chamber, BCE cells; assay type: cell-based, bovine
Experimental: (§1) The porcine aortic endothelial (PAE) cell line overexpressing FGF receptor-1 (FGFR-1) (Wennström et al 1992) was cultured in Ham's F12/10% fetal bovine serum (FCS) and NIH 3T3 murine fibroblasts were cultured in Dulbecco's modified medium (DMEM)/10% newborn calf serum (NCS). F12, DMEM and serum were bought from Life Technologies. Primary bovine adrenal cortex capillary endothelial (BCE) cells were cultured on gelatin-coated dishes in DMEM/10% NCS and 2 ng/ml FGF-2 (Boehringer Mannheim). For chemotaxis assays, both PAE and NIH 3T3 cells were serum-starved over night in 0.1% BSA and BCE cells in 0.5% NCS. Human embryonic kidney (HEK) 293-EBNA cells were cultured in DMEM/10% FCS. Approximately every second month they were given 0.25 mg/ml G418 (Calbiochem) to ensure positive selection of the EBNA-1 expressing cells.
A migration assay was performed in a modified Boyden chamber as described earlier (Auerbach et al., 1991) using micropore polycarbonate filters (8 μm thick, 8 μm pore) coated with type-1 collagen solution at 100 μg/ml (Vitrogen 100, Collagen Corp). BCE, PAE/FGFR-1 or NIH 3T3 cells were preincubated or not with HRGP (100 ng/ml) for 30 min, trypsinised and resuspended at a concentration of 7.5×10^5 cells/ml in Dulbecco's modified essential medium (Invitrogen) containing 0.25% BSA and Trasylol at 1000 KIE. FGF-2 and VEGF-A was used at 5 ng/ml, HRGP and the protein C inhibitor (PCI) at 100 ng/ml and BSA at 0.25%. After 5 h at 37° C., migrated cells were stained with Giemsa and counted using an image analysis software (Easy Image Analysis) from Tekno Optik AB, Sweden. All samples were analysed in at least six parallel wells for each treatment.

[2] = test system: NIH 3T3 murine fibroblasts; experiment: chemotaxis assay in modified Boyden chamber, NIH 3T3 fibroblasts; assay type: cell-based; settings: 100 ng/ml HRGP
Experimental: as §1
A migration assay was performed in a modified Boyden chamber as described earlier (Auerbach et al., 1991) using micropore polycarbonate filters (8 μm thick, 8 μm pore) coated with type-1 collagen solution at 100 μg/ml (Vitrogen 100, Collagen Corp). […] After 5 h at 37° C., migrated cells were stained with Giemsa and counted using an image analysis software (Easy Image Analysis) from Tekno Optik AB, Sweden. All samples were analysed in at least six parallel wells for each treatment.

primary BCE cells [3] = experiment: comparative study pep2/pep3, chemotaxis; assay type: cell-based, bovine; settings: 100 ng/ml, FGF-2 10 ng/ml
Experimental: Primary endothelial cells were starved over night in 0.5% normal calf serum. A migration assay was performed in a modified Boyden chamber as described earlier (Auerbach et al., 1991) using micropore polycarbonate filters (8 μm thick, 8 μm pore) coated with type-1 collagen solution at 100 μg/ml (Vitrogen 100, Collagen Corp). Cells were trypsinized and resuspended at 7.5×10^5 cells/ml in Dulbecco's modified essential medium (Invitrogen) containing 0.25% BSA and Trasylol at 1000 KIE. The cell suspension was added in the upper chamber and FGF-2 (10 ng/ml), HRGP (100 ng/ml), peptide 2 or 3 (50 ng/ml) in medium containing 0.25% BSA were added to the lower chamber. The peptides were dissolved in PBS containing a 10-fold molar excess (Zn:peptide) of Zn^2+-acetate. After 5 h at 37° C., cells that had migrated through the filter were stained with Giemsa and counted using the Easy Image Analysis software. All samples were analyzed in at least six wells for each treatment. Results of the study are illustrated in FIG. 7.

## HRGP: mature human Histidine Rich Glycoprotein, about 507 amino acid residues
Primary BCE cells [1]; 100 ng/ml HRGP
  FCS-induced chemotaxis of BCE cells: not inhibited
Primary BCE cells [1]; 100 ng/ml HRGP, VEGF-A 5 ng/ml
  VEGF-A-induced chemotaxis of BCE cells: inhibited
Primary BCE cells [1]; 100 ng/ml protein, FGF-2 5 ng/ml, 5 h
  FGF-2-induced chemotaxis of BCE cells: completely arrested
[2]
  FGF-2-induced chemotaxis of NIH 3T3 murine fibroblasts: not inhibited
Primary BCE cells [3]
  FGF-2-induced chemotaxis of primary BCE cells: inhibited
